From the NIST ThermoML archive (doi:10.1016/j.jct.2016.12.037)

Test: xn = mol fraction of the nth substance listed
Details: Liquid; for viscosity: Concentric cylinders viscometry

CCCC[n+]1ccn(C)c1.O=S(=O)([N-]S(=O)(=O)C(F)(F)F)C(F)(F)F + CCCCn1cc[n+](C)c1.[Cl-]
mass density [kg/m3]
Details | x2 = 0 | x2 = 0.25 | x2 = 0.5 | x2 = 0.75
351.9 K, 70000 kPa, Bellows volumetry | – | – | 1304.5 | 1207.5
351.9 K, 80000 kPa, Bellows volumetry | – | 1384.5 | 1309.5 | 1211.8
351.9 K, 90000 kPa, Bellows volumetry | – | 1389.8 | 1314.2 | 1215.7
351.9 K, 100000 kPa, Bellows volumetry | – | 1394.9 | 1318.9 | 1219.6
351.9 K, 110000 kPa, Bellows volumetry | – | 1400 | 1323.3 | 1223.4
351.9 K, 120000 kPa, Bellows volumetry | – | 1404.9 | 1327.8 | 1227.2
351.9 K, 130000 kPa, Bellows volumetry | – | 1409.6 | 1332 | 1230.8
351.9 K, 140000 kPa, Bellows volumetry | – | 1414.2 | 1336.1 | 1234.5
351.9 K, 150000 kPa, Bellows volumetry | – | 1418.7 | 1340.3 | 1237.9
351.9 K, 160000 kPa, Bellows volumetry | – | 1423.2 | 1344.2 | 1241.4
351.9 K, 170000 kPa, Bellows volumetry | – | 1427.5 | 1348 | 1244.7
351.9 K, 180000 kPa, Bellows volumetry | – | 1431.7 | 1351.8 | 1247.9
351.9 K, 190000 kPa, Bellows volumetry | – | 1435.8 | 1355.6 | 1251.2
351.9 K, 200000 kPa, Bellows volumetry | – | 1439.9 | 1359.2 | 1254.3
353.15 K, 100 kPa, Vibrating tube method | 1384.8 | 1331.1 | 1263 | 1173.6
363.15 K, 100 kPa, Vibrating tube method | 1375.6 | 1322.6 | 1255.4 | 1167.1
372.1 K, 10000 kPa, Bellows volumetry | – | 1322.9 | 1255 | 1165.9
372.1 K, 20000 kPa, Bellows volumetry | – | 1330.9 | 1261.8 | 1171.6
372.1 K, 30000 kPa, Bellows volumetry | – | 1338.3 | 1268.4 | 1176.9
372.1 K, 40000 kPa, Bellows volumetry | – | 1345.3 | 1274.6 | 1181.9
372.1 K, 50000 kPa, Bellows volumetry | – | 1352 | 1280.4 | 1186.7
372.1 K, 60000 kPa, Bellows volumetry | – | 1358.3 | 1286 | 1191.4
372.1 K, 70000 kPa, Bellows volumetry | – | 1364.4 | 1291.3 | 1195.9
372.1 K, 80000 kPa, Bellows volumetry | – | 1370.4 | 1296.5 | 1200.3
372.1 K, 90000 kPa, Bellows volumetry | – | 1375.8 | 1301.4 | 1204.4
372.1 K, 100000 kPa, Bellows volumetry | – | 1381.2 | 1306.1 | 1208.5
372.1 K, 110000 kPa, Bellows volumetry | – | 1386.4 | 1310.9 | 1212.5
372.1 K, 120000 kPa, Bellows volumetry | – | 1391.5 | 1315.4 | 1216.3
372.1 K, 130000 kPa, Bellows volumetry | – | 1396.2 | 1319.8 | 1220
372.1 K, 140000 kPa, Bellows volumetry | – | 1401.1 | 1324.2 | 1223.7
372.1 K, 150000 kPa, Bellows volumetry | – | 1405.7 | 1328.4 | 1227.3
372.1 K, 160000 kPa, Bellows volumetry | – | 1410.3 | 1332.5 | 1230.8
372.1 K, 170000 kPa, Bellows volumetry | – | 1414.7 | 1336.4 | 1234.1
372.1 K, 180000 kPa, Bellows volumetry | – | 1419 | 1340.3 | 1237.6
372.1 K, 190000 kPa, Bellows volumetry | – | 1423.3 | 1344.1 | 1240.8
372.1 K, 200000 kPa, Bellows volumetry | – | 1427.6 | 1347.9 | 1244.1
373.15 K, 100 kPa, Vibrating tube method | 1366.7 | 1314 | 1247.5 | 1160.2
392.3 K, 10000 kPa, Bellows volumetry | – | 1306.7 | 1240.1 | 1152.9
392.3 K, 20000 kPa, Bellows volumetry | – | 1315.1 | 1247.4 | 1158.8
392.3 K, 30000 kPa, Bellows volumetry | – | 1323.1 | 1254.3 | 1164.4
392.3 K, 40000 kPa, Bellows volumetry | – | 1330.5 | 1260.9 | 1169.7
392.3 K, 50000 kPa, Bellows volumetry | – | 1337.5 | 1266.9 | 1174.8
392.3 K, 60000 kPa, Bellows volumetry | – | 1344.2 | 1272.8 | 1179.6
392.3 K, 70000 kPa, Bellows volumetry | – | 1350.5 | 1278.4 | 1184.3
392.3 K, 80000 kPa, Bellows volumetry | – | 1356.6 | 1283.8 | 1188.8
392.3 K, 90000 kPa, Bellows volumetry | – | 1362.4 | 1288.8 | 1193.1
392.3 K, 100000 kPa, Bellows volumetry | – | 1368 | 1293.8 | 1197.3
392.3 K, 110000 kPa, Bellows volumetry | – | 1373.3 | 1298.7 | 1201.5
392.3 K, 120000 kPa, Bellows volumetry | – | 1378.6 | 1303.4 | 1205.5
392.3 K, 130000 kPa, Bellows volumetry | – | 1383.7 | 1308 | 1209.3
392.3 K, 140000 kPa, Bellows volumetry | – | 1388.7 | 1312.4 | 1213.1
392.3 K, 150000 kPa, Bellows volumetry | – | 1393.5 | 1316.8 | 1216.8
392.3 K, 160000 kPa, Bellows volumetry | – | 1398.2 | 1320.9 | 1220.4
392.3 K, 170000 kPa, Bellows volumetry | – | 1402.8 | 1325.1 | 1224
392.3 K, 180000 kPa, Bellows volumetry | – | 1407.1 | 1329.2 | 1227.4
392.3 K, 190000 kPa, Bellows volumetry | – | 1411.5 | 1333 | 1230.8
392.3 K, 200000 kPa, Bellows volumetry | – | 1415.9 | 1336.9 | 1234.2

viscosity [mPa·s], 100 kPa
Details | x2 = 0 | x2 = 0.25 | x2 = 0.5 | x2 = 0.75
353.15 K | 9.562 | 15.34 | 27.82 | 58.87
363.15 K | 7.788 | 12.03 | 20.61 | 40.11
373.15 K | 6.469 | 9.638 | 15.7 | 28.43
